# Tested on: eggs of Tetranychus cinnabarinus
# Experiment: Effects of sulfite compounds 1-30 and 1′-30′ on hatching of eggs of Tetranychus cinnabarinus at 100 ppm, leaf disc method
# Type: in vivo
# Conditions: 7 days after insecticide delivery
# Procedure: • (1) Preparation of leaf discs containing eggs: 20 female adult mites of Tetranychus cinnabarinus were transferred onto leaf discs of Vicia faba with a diameter of 2.0 cm (with wetted filter paper at the bottom), then covered it with a lidded culture dish and cultivated under moisturizing conditions, the adult mites were removed within 36 hours and microscopic examination and counting were performed on leaf discs containing eggs. • (2) Investigation of egg population base: Before pesticide soaking, a microscopic examination was conducted on the egg basic number of each leaf disc, with 2 replicates set for each treatment. • (3) Pesticide soaking treatment: The leaf butterflies loaded with mite eggs were soaked in clear water and sulfite compounds for 10 seconds, respectively, then taken out and cultivated under moisturizing conditions. Each treatment should be repeated for no less than 3 times. • (4) Cultivation and observation: The […] were cultivated under normal conditions. Five days after insecticide delivery, the hatching status of mite eggs was investigated. • Note: The temperature and humidity conditions of the constant temperature and humidity incubator after the treatment should be controlled so as to avoid excessive temperature differences, which may cause generation and dripping of condensate water in the culture dish, resulting in abnormal death of eggs due to soaking in water; it is also necessary to ensure sufficient strong ambient light, without directing irradiating the leaves. • (5) Survey of Results: The experimental materials of each treatment group were regularly hydrated and moisturized, and the hatching of eggs was observed. On the 7th day after insecticide delivery, the number of hatched eggs for each treatment was recorded, and the survey of results was recorded in the original notebook. According to the experimental requirements and characteristics of agents, the survey time can be shortened or extended.
# • 1) Surveying and recording the number of hatched eggs for each treatment. • 2) Photographing and recording whether there was any pesticide damage to the leaf discs of Vicia faba. • 3) Recording the developmental status of experimental mite eggs, behavior status of nymph mites, including abnormal phenomena such as delayed or stopped development of mite eggs, difficulty in breaking hull for nymph mites, or painful struggles after hatching, etc. • (6) Calculation method: Based on the survey data, the prevention and control effect of each treatment was calculated according to the following formula, and the calculation results were kept to two decimal places. […]
SMILES,"Hatching rate (%), Replicate 3 [%]","Hatching rate (%), Replicate 2 (replicate 2) [%]"
O=C(OCCF)OC1COCC1Oc1ccc(Cl)cc1Cl (stereo not shown) [Compound 25],0.00,–
CC(C)(COS(=O)OCCBr)Oc1ccc(Cl)cc1Cl (stereo not shown) [Compound 12′],10.39,–
CC(COc1cc(Cl)ccc1Cl)OS(=O)OCCBr (stereo not shown) [Compound 9′],15.15,–
CC(COS(=O)OCCF)Oc1cc(Cl)ccc1Cl (stereo not shown) [Compound 7],–,8.15

# Reference: patent publication US20260184675A1, “CHIRAL ISOMERIC SULFITE COMPOUND AND APPLICATION THEREOF” (Chengdu Hanova BioSciences Co., Ltd, priority 2024, published 2026)
